Source: patent publication US7205304B2, “Sulfonyl-Derivatives as novel inhibitors of histone deacetylase” (Janssen Pharmaceutica N.V., priority 2002, dated 2007)
Values after ≈ are worked out from the molar mass of the structure shown.

Assays:
[1] = target: histone deacetylase (HeLa nuclear extracts); experiment: In vitro assay for inhibition of histone deacetylase; assay type: biochemical; conditions: [3H]acetylated histone H4 peptide substrate
Description: The in vitro assay for inhibition of histone deacetylase (see example C.1) measures the inhibition of HDAC enzymatic activity obtained with the compounds of formula (I).
HeLa nuclear extracts (supplier: Biomol) were incubated at 60 μg/ml with 2×10^−8 M of radiolabeled peptide substrate. As a substrate for measuring HDAC activity a synthetic peptide, i.e. the amino acids 14–21 of histone H4, was used. The substrate is biotinylated at the NH2-terminal part with a 6-aminohexanoic acid spacer, and is protected at the COOH-terminal part by an amide group and specifically [^3H]acetylated at lysine 16. The substrate, biotin-(6-aminohexanoic)Gly-Ala-([^3H]-acetyl-Lys-Arg-His-Arg-Lys-Val-NH2), was added in a buffer containing 25 mM Hepes, 1 M sucrose, 0.1 mg/ml BSA and 0.01% Triton X-100 at pH 7.4. After 30 min the deacetylation reaction was terminated by the addition of HCl and acetic acid. (final concentration 0.035 mM and 3.8 mM respectively). After stopping the reaction, the free ^3H-acetate was extracted with ethylacetate. After mixing and centrifugation, the radioactivity in an aliquot of the upper (organic) phase was counted in a β-counter.
For each experiment, controls (containing HeLa nuclear extract and DMSO without compound), a blank incubation (containing DMSO but no HeLa nuclear extract or compound) and samples (containing compound dissolved in DMSO and HeLa nuclear extract) were run in parallel. In first instance, compounds were tested at a concentration of 10^−5M. […] In each test the blank value was substracted from both the control and the sample values. The control sample represented 100% of substrate deactylation. For each sample the radioactivity was expressed as a percentage of the mean value of the controls. […] Herein the effects of test compounds are expressed as pIC50 (the negative log value of the IC50-value).

[2] = test system: A2780 ovarian carcinoma cells; experiment: Antiproliferative activity on A2780 cells (MTT); assay type: cell-based, human; conditions: Homo sapiens, A2780, 96 h, four days of incubation, read-out: Cellular activity pIC50 (converted)
Description: Cellular activity of the compounds of formula (I) was determined on A2780 tumour cells using a colorimetric assay for cell toxicity or survival (Mosmann Tim, Journal of Immunological Methods 65: 55–63, 1983)(see example C.2).
All compounds tested were dissolved in DMSO and further dilutions were made in culture medium. Final DMSO concentrations never exceeded 0.1% (v/v) in cell proliferation assays. Controls contained A2780 cells and DMSO without compound and blanks contained DMSO but no cells. MTT was dissolved at 5 mg/ml in PBS. A glycine buffer comprised of 0.1 M glycine and 0.1 M NaCl buffered to pH 10.5 with NaOH (1 N) was prepared (all reagents were from Merck).
The human A2780 ovarian carcinoma cells (a kind gift from Dr. T. C. Hamilton [Fox Chase Cancer Centre, Pennsylvania, USA]) were cultured in RPMI 1640 medium supplemented with 2 mM L-glutamine, 50 μg/ml gentamicin and 10% fetal calf serum. Cells were routinely kept as monolayer cultures at 37° C. in a humidified 5% CO2 atmosphere. Cells were passaged once a week using a trypsin/EDTA solution at a split ratio of 1:40. All media and supplements were obtained from Life Technologies. Cells were free of mycoplasma contamination as determined using the Gen-Probe Mycoplasma Tissue Culture kit (supplier: BioMérieux).
Cells were seeded in NUNC™ 96-well culture plates (Supplier: Life Technologies) and allowed to adhere to the plastic overnight. Densities used for plating were 1500 cells per well in a total volume of 200 μl medium. After cell adhesion to the plates, medium was changed and drugs and/or solvents were added to a final volume of 200 μl. Following four days of incubation, medium was replaced by 200 μl fresh medium and cell density and viability was assessed using an MTT-based assay. To each well, 25 μl MTT solution was added and the cells were further incubated for 2 hours at 37° C. The medium was then carefully aspirated and the blue MTT-formazan product was solubilized by addition of 25 μl glycine buffer followed by 100 μl of DMSO. […] Within an experiment, the results for each experimental condition are the mean of 3 replicate wells. For initial screening purposes, compounds were tested at a single fixed concentration of 10^−6 M. For active compounds, the experiments were repeated to establish full concentration-response curves. For each experiment, controls (containing no drug) and a blank incubation (containing no cells or drugs) were run in parallel. The blank value was subtracted from all control and sample values. For each sample, the mean value for cell growth (in absorbance units) was expressed as a percentage of the mean value for cell growth of the control. […] Herein the effects of test compounds are expressed as pIC50 (the negative log value of the IC50-value).

[3] = Kinetic solubility in aqueous media (nephelometry); assay type: physicochemical; conditions: phosphate citrate buffer, pH 7.4, aqueous buffer, kinetic from dmso stock, phosphate citrate buffer pH 7.4, turbidity of three dilution steps; read-out: Solubility Score
Description: Kinetic solubility in aqueous media measures the ability of a compound to stay in aqueous solution upon dilution (see example C.3).
DMSO-stock solutions are diluted with a single aqueous buffer solvent in 3 consecutive steps. For every dilution turbidity is measured with a nephelometer.
In the first dilution step, 10 μl of a concentrated stock-solution of the active compound, solubilized in DMSO (5 mM), was added to 100 μl phosphate citrate buffer pH 7.4 and mixed. In the second dilution step, an aliquot (20 μl) of the first dilution step was further dispensed in 100 μl phosphate citrate buffer pH 7.4 and mixed. Finally, in the third dilution step, a sample (20 μl) of the second dilution step was further diluted in 100 μl phosphate citrate buffer pH 7.4 and mixed. All dilutions were performed in 96-well plates. Immediately after the last dilution step the turbidity of the three consecutive dilution steps were measured with a nephelometer. Dilution was done in triplicate for each compound to exclude occasional errors. Based on the turbidity measurements a ranking is performed into 3 classes. Compounds with high solubility obtained a score of 3 and for this compounds the first dilution is clear. Compounds with medium solubility obtained a score of 2. For these compounds the first dilution is unclear and the second dilution is clear. […] The solubility of 112 compounds was measured.

O=C(NO)c1ccc(N2CCN(S(=O)(=O)c3cccc(F)c3)CC2)cc1 [Compound 61]
Enzyme activity pIC50 [1]: 6.255 | IC50 [2]: 2.79 µM | solubility [3]: 75.8 to 454 µM (≈ 28.8 to 172 µg/mL)

O=C(NO)c1ccc(N2CCN(S(=O)(=O)CCc3cccc4ccccc34)CC2)cc1 [Compound 62]
Enzyme activity pIC50 [1]: 5.409 | IC50 [2]: 0.384 µM | solubility [3]: < 75.8 µM

CCCc1ccc(S(=O)(=O)N2CCN(c3ccc(C(=O)NO)cc3)CC2)cc1 [Compound 63]
Enzyme activity pIC50 [1]: 6.215 | IC50 [2]: 1.86 µM | solubility [3]: < 75.8 µM

Cc1noc(C)c1S(=O)(=O)N1CCN(c2ccc(C(=O)NO)cc2)CC1 [Compound 64]
Enzyme activity pIC50 [1]: 5.753 | IC50 [2]: 8.91 µM | solubility [3]: > 454 µM

Cn1cnc(S(=O)(=O)N2CCN(c3ccc(C(=O)NO)cc3)CC2)c1 [Compound 65]
Enzyme activity pIC50 [1]: 5.775 | IC50 [2]: > 10 µM | solubility [3]: > 454 µM

O=C(NO)c1ccc(N2CCN(S(=O)(=O)c3ccc(Cl)s3)CC2)cc1 [Compound 66]
Enzyme activity pIC50 [1]: 6.197 | IC50 [2]: 1.33 µM | solubility [3]: < 75.8 µM

Cc1c(C)c(S(=O)(=O)N2CCN(c3ccc(C(=O)NO)cc3)CC2)c(C)c2c1OC(C)(C)C2 [Compound 67]
Enzyme activity pIC50 [1]: 5.177 | IC50 [2]: 0.855 µM | solubility [3]: < 75.8 µM

O=C(NO)c1ccc(N2CCN(S(=O)(=O)c3ccc(-c4ccccn4)s3)CC2)cc1 [Compound 68]
Enzyme activity pIC50 [1]: 6.908 | IC50 [2]: 1.23 µM | solubility [3]: < 75.8 µM

O=C(NO)c1ccc(N2CCN(S(=O)(=O)c3cc(S(=O)(=O)c4ccccc4)cs3)CC2)cc1 [Compound 69]
Enzyme activity pIC50 [1]: 5.978 | IC50 [2]: > 10 µM | solubility [3]: > 454 µM

O=C(NO)c1ccc(N2CCN(S(=O)(=O)c3cccs3)CC2)cc1 [Compound 70]
Enzyme activity pIC50 [1]: 5.914 | IC50 [2]: 4.06 µM | solubility [3]: > 454 µM

O=C(NO)c1ccc(N2CCN(S(=O)(=O)c3cccc4cccnc34)CC2)cc1 [Compound 71]
Enzyme activity pIC50 [1]: 6.449 | IC50 [2]: 2.47 µM | solubility [3]: > 454 µM

CN(C)c1cccc2c(S(=O)(=O)N3CCN(c4ccc(C(=O)NO)cc4)CC3)cccc12 [Compound 72]
Enzyme activity pIC50 [1]: 6.346 | IC50 [2]: 0.942 µM | solubility [3]: < 75.8 µM

O=C(NO)c1ccc(N2CCN(S(=O)(=O)Cc3ccccc3)CC2)cc1 [Compound 73]
Enzyme activity pIC50 [1]: 6.212 | IC50 [2]: 3.96 µM | solubility [3]: < 75.8 µM

O=C(NO)c1ccc(N2CCN(S(=O)(=O)c3ccccc3C(F)(F)F)CC2)cc1 [Compound 74]
Enzyme activity pIC50 [1]: 5.841 | IC50 [2]: 2.61 µM | solubility [3]: 75.8 to 454 µM (≈ 32.6 to 195 µg/mL)

O=C(NO)c1ccc(N2CCN(S(=O)(=O)c3ccc(Cl)cc3)CC2)cc1 [Compound 76]
Enzyme activity pIC50 [1]: 6.227 | IC50 [2]: 1.36 µM | solubility [3]: < 75.8 µM

O=C(NO)c1ccc(N2CCN(S(=O)(=O)c3ccc(Br)cc3)CC2)cc1 [Compound 78]
Enzyme activity pIC50 [1]: 6.306 | IC50 [2]: 1.25 µM | solubility [3]: 75.8 to 454 µM (≈ 33.4 to 200 µg/mL)

Cc1ccc(S(=O)(=O)N2CCN(c3ccc(C(=O)NO)cc3)CC2)cc1 [Compound 79]
Enzyme activity pIC50 [1]: 6.238 | IC50 [2]: 4.29 µM | solubility [3]: < 75.8 µM

O=C(NO)c1ccc(N2CCN(S(=O)(=O)c3ccc(Cl)c(Cl)c3)CC2)cc1 [Compound 80]
Enzyme activity pIC50 [1]: 5.961 | IC50 [2]: 1.23 µM | solubility [3]: < 75.8 µM

O=C(NO)c1ccc(N2CCN(S(=O)(=O)c3cccc4ccccc34)CC2)cc1 [Compound 81]
Enzyme activity pIC50 [1]: 6.873 | IC50 [2]: 1.3 µM | solubility [3]: < 75.8 µM

O=C(NO)c1ccc(N2CCN(S(=O)(=O)c3ccc(Oc4ccccc4)cc3)CC2)cc1 [Compound 82]
Enzyme activity pIC50 [1]: 5.821 | IC50 [2]: 1.08 µM | solubility [3]: > 454 µM

O=C(NO)c1ccc(N2CCN(S(=O)(=O)c3cccc(-c4ccccc4)c3)CC2)cc1 [Compound 83]
Enzyme activity pIC50 [1]: 6.157 | IC50 [2]: 1.3 µM | solubility [3]: < 75.8 µM

O=C(NO)c1ccc(CN2CCN(S(=O)(=O)c3ccc4ccccc4c3)CC2)cc1 [Compound 88]
Enzyme activity pIC50 [1]: 6.481 | IC50 [2]: 2.84 µM | solubility [3]: > 454 µM

O=C(NO)c1cnc(N2CCN(S(=O)(=O)c3cccs3)CC2)nc1 [Compound 90]
Enzyme activity pIC50 [1]: 7.467 | IC50 [2]: 1.11 µM | solubility [3]: > 454 µM

O=C(NO)c1cnc(N2CCN(S(=O)(=O)c3ccc4cccnc4c3)CC2)nc1 [Compound 91]
Enzyme activity pIC50 [1]: 7.688 | IC50 [2]: 0.783 µM | solubility [3]: > 454 µM

Cn1nc(-c2ccc(S(=O)(=O)N3CCN(c4ncc(C(=O)NO)cn4)CC3)s2)cc1C(F)(F)F [Compound 93]
Enzyme activity pIC50 [1]: 7.464 | IC50 [2]: 0.455 µM | solubility [3]: > 454 µM

Cn1nc(C(F)(F)F)cc1-c1ccc(S(=O)(=O)N2CCN(c3ncc(C(=O)NO)cn3)CC2)s1 [Compound 94]
Enzyme activity pIC50 [1]: 7.497 | IC50 [2]: 0.218 µM | solubility [3]: 75.8 to 454 µM (≈ 39.2 to 235 µg/mL)

O=C(NO)c1cnc(N2CCN(S(=O)(=O)c3c(Cl)nc4sccn34)CC2)nc1 [Compound 95]
Enzyme activity pIC50 [1]: 7.363 | IC50 [2]: 1.1 µM | solubility [3]: > 454 µM

COc1ccc(S(=O)(=O)N2CCN(c3ncc(C(=O)NO)cn3)CC2)cc1OC [Compound 96]
Enzyme activity pIC50 [1]: 7.49 | IC50 [2]: 0.335 µM | solubility [3]: > 454 µM

O=C(NO)c1cnc(N2CCN(S(=O)(=O)c3ccc(-c4ccc(OC(F)(F)F)cc4)cc3)CC2)nc1 [Compound 98]
Enzyme activity pIC50 [1]: 7.054 | IC50 [2]: 0.356 µM | solubility [3]: 75.8 to 454 µM (≈ 39.7 to 238 µg/mL)

COc1ccc(-c2ccc(S(=O)(=O)N3CCN(c4ncc(C(=O)NO)cn4)CC3)cc2)c(OC)c1 [Compound 99]
Enzyme activity pIC50 [1]: 7.316 | IC50 [2]: 0.242 µM | solubility [3]: > 454 µM

O=C(NO)c1cnc(N2CCN(S(=O)(=O)c3ccc(-c4ccoc4)cc3)CC2)nc1 [Compound 100]
Enzyme activity pIC50 [1]: 8.171 | IC50 [2]: 0.0579 µM | solubility [3]: 75.8 to 454 µM (≈ 32.6 to 195 µg/mL)

O=C(NO)c1cnc(N2CCN(S(=O)(=O)c3ccc(-c4cccc(C(F)(F)F)c4)cc3)CC2)nc1 [Compound 102]
Enzyme activity pIC50 [1]: 7.162 | IC50 [2]: 0.353 µM | solubility [3]: 75.8 to 454 µM (≈ 38.5 to 231 µg/mL)
